The numbers were not newly measured in patent US20250057962A1, “PROCESSABLE COMPOSITIONS AND USE FOR THE SAME” (Ripple Therapeutics Corporation, priority 2021, published 2025), which cites them from elsewhere.

For the series the following is noted: given once a day.

The structures appear in SMILES notation.

`CC(C)OC(=O)CCC/C=C\C[C@@H]1[C@@H](CC[C@@H](O)CCc2ccccc2)[C@H](O)C[C@@H]1O` [latanoprost]: the “mean IOP lowering” value is on record as “about 35%”.
